The source of these data is patent publication EP4635958A1, “PYRIMIDINE-CONTAINING POLYCYCLIC DERIVATIVE INHIBITOR, AND PREPARATION METHOD THEREFOR AND USE THEREOF” (Shanghai Hansoh Biomedical Co., Ltd., priority 2022, dated 2024).

Where a name gives a salt, the structure may show the parent alone. Read-outs that look alike come from different tables or passages of the source.

A short description of series [1]: Pharmacokinetic determination in rats (IV and PO, plasma, LCMS/MS). Type of series: in vivo, SD rats. The conditions noted are these: male SD rats; for F: PO 30 mg/kg vs IV 1 mg/kg; for AUC(0-inf): read-out: AUCo-∞; for clearance: read-out: CL; for half-life: read-out: T1/2 (converted). In outline:
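Male SD rats (3/group), fasted overnight, dosed PO at 30 mg/kg in 10% Captisol/50 mM citrate pH 5.0 or IV at 1 mg/kg in 5% DMSO/10% Solutol HS15/85% PBS. Jugular plasma (EDTA-2K) sampled predose to 24 h; analysed by LCMS/MS.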

In another series the test system is GP2D. Description: Inhibition of proliferation of KRAS G12D mutant tumor cell line GP2D (CellTiter-Glo). The note with it: read-out: GP2D IC50. (In ATP-based viability assays light output follows the ATP content of the culture.)
Series [2] in a line: Pharmacokinetic determination in mice (IV and PO, plasma, LCMS/MS). Format: in vivo, Balb/c mice. The note with it: for AUC(0-inf) / C0 / clearance / half-life / Cmax / Tmax: mouse, in vivo, plasma; for C0: read-out: C0; for clearance: read-out: CL; for half-life: read-out: T1/2 (converted); for Cmax: read-out: Cmax; for Tmax: read-out: Tmax. The method in brief:
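Male Balb/c mice, fasted overnight (n=3 per route): PO 30 mg/kg in 10% Captisol/50 mM citrate pH 5.0, or IV 1 mg/kg in 5% DMSO/10% Solutol HS15/85% PBS. Orbital blood sampled predose to 24 h; EDTA plasma analysed by LC-MS/MS.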

A short description of series [3]: Plasma stability test, human plasma.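 For all read-outs here: test compound incubated in human plasma, quantified by LC-MS/MS (positive-ion ESI, MRM) against an internal standard.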 Format: in vitro ADME. The conditions noted are these: Human plasma, 37°C; for half-life: read-out: t1/2 (converted).
Method: (§1) Liquid chromatography-mass spectrometer, centrifuge, vortexer, pipette, continuous dispenser, 96-well plate, 50% methanol aqueous solution, acetonitrile solution containing internal standard, blank matrix (plasma of rat, dog, or human), Propantheline (propantheline bromide), Mevinolin (lovastatin), and test compound.
(§2) After whole blood was collected from animals or humans, it was placed in a test tube containing an anticoagulant and centrifuged at 3500 rpm for 10 min to collect the upper pale yellow plasma.
(§3) The compound was weighed and the stock solution was formulated with DMSO and the working solution was formulated with 100 mM phosphate buffer.
(§4) • Instrument: API4000 liquid chromatography-mass spectrometer, AB Company, USA; • the ion source was electrospray ionization source (ESI); • drying gas (N2) temperature was 500°C; • electrospray voltage was 5500V; • the detection method was positive ion detection; • the scanning method was selected reaction monitoring (MRM); • the scanning time was 0.1s.
Series [4] can be described thus: Plasma stability test, rat plasma. The note with it: for Remaining rate (%) 0 min / Remaining rate (%) 15 min / Remaining rate (%) 30 min / Remaining rate (%) 60 min / Remaining rate (%) 120 min: Rat plasma, 37°C; for half-life: rat, plasma.
From the text: The purpose of this experiment was to detect the stability of the example compounds in plasma of mouse, rat, dog and human.
as §1, §2, §3
2.36 mg of propantheline bromide was weighed and diluted with 1 mL of DMSO into a 10 mM stock solution; 10 µL of 10 mM stock solution was pipetted into 1 mL of 100 mM phosphate buffer to achieve a final concentration of 100 µM.
4.05 mg of lovastatin was weighed and diluted with 1 mL of DMSO into a 10 mM stock solution; 10 µL of 10 mM stock solution was pipetted into 1 mL of 100 mM phosphate buffer to achieve a final concentration of 100 µM.
• 1) In a 96-well plate, 285 µL of plasma and 15 µL of 10 µM compound (test compound) were added in sequence and incubated at 37°C. • 2) 40 µL was taken at 0, 15, 30, 60, 90, and 120 min (the sampling point can be fine-tuned) and 160 µL of acetonitrile stop solution containing internal standard was add. • 3) After centrifugation (3500 rpm, 10 min), 50 µL of supernatant was taken, and 50 µL of DDH2O added for dilution and then the obtained mixture was injected into LC-MS/MS.
• Instruments: Shimadzu LC-20 AD • Chromatographic column: Phenomenex Gemiu ® C18 (50*4.6 mm, 5 µm particle size); • mobile phase: A: Acetonitrile, B: 0.1% formic acid solution 0-8 min: 5% A→95% A, 2.0-2.1 min: 90%A→5% A; Flow rate: 0.8 mL/min; Run time: 5.0 min; Injection volume: 5 µL.
as §4
Where [5] appears, read: IV, 1 mg/kg, overnight fasting, plasma.
Setting [6] is: PO, 30 mg/kg, overnight fasting, plasma.
Setting [7] is: rat, in vivo, IV, 1 mg/kg, overnight fasting, plasma.
[8] abbreviates: rat, in vivo, IV, 1 mg/kg, overnight fasting, plasma, read-out: C0.
The mark [9] stands for this setting: rat, in vivo, PO, 30 mg/kg, overnight fasting, plasma.
Setting [10] is: rat, in vivo, PO, 30 mg/kg, overnight fasting, plasma, read-out: Cmax.
Setting [11] is: rat, in vivo, PO, 30 mg/kg, overnight fasting, plasma, read-out: Tmax.
The mark [12] stands for this setting: Balb/c mice, intravenously (IV), 1 mg/kg, read-out: AUCo-∞.
[13] abbreviates: Balb/c mice, intravenously (IV), 1 mg/kg.
The mark [14] stands for this setting: PO, 30 mg/kg, male Balb/c mice, overnight fasting, read-out: AUC0-∞.
Where [15] appears, read: PO, 30 mg/kg, male Balb/c mice, overnight fasting.

Method for GP2D: Experimental method: When SNU-1, HPAF-II, Panc0403, AsPC-1 or GP2D cells were cultured to the appropriate confluence, and the SNU-1, HPAF-II, Panc0403, AsPC-1 or GP2D cells were collected. The cells were adjusted to the appropriate cell density using complete culture medium, the cell suspension was plated onto a 96-well plate at 90 µL per well, and the plate was placed in the incubator at 37°C and 5% CO2 for adherent culture overnight. Solutions of the compound with different concentrations were formulated using DMSO and culture medium. A vehicle control was set up. […] Then, CellTiter-Glo solution was added, and the obtained mixture was shaken and mixed evenly, incubated in the dark for 10 min, and read with a BioTek Synergy H1 microplate reader. […] Experimental data processing method: The luminescence signal value was used to calculate the inhibition rate. Graphpad Prism software was used to fit the concentration and inhibition rate to a nonlinear regression curve, so as to obtain the IC50 value.

For the molecule “4-((5S,5aS,6R,9S)-12-((1-((((R)-4-(difluoromethylene)-2-methylpiperidin-1-yl)methyl)cyclopropyl)methoxy)-1-fluoro-5-(methyl-d3)-5a,6,7,8,9,10-hexahydro-5H-4-oxa-3,10a,11,13,14-pentaaza-6,9-methylnaphtho[1,8-ab]hept-2-yl)-5-ethynyl-6-fluoronaphthalen-2-ol [Example 162]”, in series [1] (setting [5]), the “AUCo-∞” value came out at 514 ng·h/mL, the C0 is recorded as 438 ng/mL, the CL is listed as 32.4 mL/min/kg and the T1/2 was determined as 10.8 h. For the same molecule, in series [1], the F was 10.3%. For the same molecule, in series [1] (setting [6]), the “AUCo-∞” value came out at 1591 ng·h/mL; the Cmax (usually the maximum level reached in the sampled fluid or tissue) worked out at 89 ng/mL; the T1/2 turned out to be 10.5 h; the Tmax – broadly, the time at which the peak concentration occurs – was found to be 4.0 h. The IC50 (as a rule, the concentration needed to halve the response being measured) in the series on GP2D (proliferation, about 72 h, CellTiter-Glo) was determined as 0.2 nM.

The molecule `C#Cc1c(F)ccc2cc(O)cc(-c3nc4c5c(nc(OCC6(CN7CCC(=NOC)CC7)CC6)nc5c3F)N3C[C@H]5CC[C@H](N5)[C@H]3[C@H](C)O4)c12` [Example 35-1, 1-((1-((((5S,5aS,6S,9R)-2-(8-ethynyl-7-fluoro-3-hydroxynaphthalen-1-yl)-1-fluoro-5-methyl-5a,6,7,8,9,10-hexahydro-5H-4-oxa-3,10a,11,13,14-pentaaza-6,9-methylenenaphtho[1,8-ab]heptalen-12-yl)oxo)methyl)cyclopropyl)methyl)piperidin-4-one O-methyloxime formate] returned a F in series [1] of 3.5%. Further, the AUC(0-inf) in series [1] (setting [7]) came out at 571 ng·h/mL; in series [1] (setting [9]), 601 ng·h/mL; in series [2] (setting [12]), 144 ng·h/mL. Further, the C0 in series [1] (setting [8]) stood at 2810 ng/mL; in series [2] (setting [13]), 693 ng/mL. Further, the clearance in series [1] (setting [7]) is 29.2 mL/min/kg; in series [2] (setting [13]) it was 116 mL/min/kg. For the same molecule, the values for the half-life in series [1] (setting [7]), in series [1] (setting [9]) and in series [2] (setting [13]) were 5.7 h, 3.4 h and 3.2 h, respectively. Further, the Cmax in series [1] (setting [10]) was 108 ng/mL. Also, in series [1] (setting [11]), the Tmax is 2 h. Further, in the series with GP2D (Homo sapiens, GP2d, 72 h), the IC50 amounted to 0.21 nM.

On to `C#Cc1c(F)ccc2cc(O)cc(-c3nc4c5c(nc(OCC6(CN7CCC(=CF)CC7)CC6)nc5c3F)N3C[C@H]5CC[C@H](N5)[C@H]3[C@H](C)O4)c12` [Example 129, 5-ethynyl-6-fluoro-4-((5S,5aS,6S,9R)-1-fluoro-12-((1-((4-(fluoromethylene)piperidin-1-yl)methyl)cyclopropyl)methoxy)-5-methyl-5a,6,7,8,9,10-hexahydro-5H-4-oxa-3,10a,11,13,14-pentaaza-6,9-methylnaphtho[1,8-ab]hept-2-yl)naphthalen-2-ol], for which, in series [3], the t1/2 result was “∞”, the “Remaining rate (%) 0 min” value is 100.00%, the “Remaining rate (%) 15 min” value came out at 109.00% and the “Remaining rate (%) 30 min” value is listed as 97.59%. For the same molecule, in series [3], the “Remaining rate (%) 60 min” value came out at 101.54% and the “Remaining rate (%) 120 min” value worked out at 105.91%. In addition, in series [1], the F is given as 5.4%. For the same molecule, in series [1] (setting [7]), the AUC(0-inf) stood at 578 ng·h/mL, the clearance is 28.8 mL/min/kg and the half-life was 11.7 h. Besides, the C0 in series [1] (setting [8]) was 2120 ng/mL. For the same molecule, in series [1] (setting [9]), the AUC(0-inf) worked out at 938 ng·h/mL and the half-life was 9.6 h. In addition, in series [1] (setting [10]), the Cmax turned out to be 103 ng/mL. The Tmax in series [1] (setting [11]) was determined as 1 h. For the same molecule, the IC50 in the series on GP2D (Homo sapiens, GP2d, 72 h) turned out to be 0.17 nM. Besides, in series [4], the “Remaining rate (%) 0 min” value was 100.00%, the “Remaining rate (%) 15 min” value stood at 110.22%, the “Remaining rate (%) 30 min” value worked out at 98.09% and the “Remaining rate (%) 60 min” value was 106.43%. In addition, in series [4], the “Remaining rate (%) 120 min” value was 95.62% and the half-life was 41.2 h.

Turning to `[2H]C([2H])([2H])[C@@H]1Oc2nc(-c3cc(O)cc4ccc(F)c(C#C)c34)c(F)c3nc(OCC4(CN5CCC(=CF)CC5)CC4)nc(c23)N2C[C@H]3CC[C@H](N3)[C@@H]12` [Example 164], in series [3], the “Remaining rate (%) 0 min” value amounted to 100.00%, the “Remaining rate (%) 15 min” value is on record as 97.48%, the “Remaining rate (%) 30 min” value was found to be 91.02% and the “Remaining rate (%) 60 min” value is recorded as 93.68%. For the same molecule, in series [3], the “Remaining rate (%) 120 min” value came out at 89.66% and the half-life was 30.3 h. Moreover, in series [1] (setting [7]), the AUC(0-inf) is 774 ng·h/mL, the clearance is 21.5 mL/min/kg and the half-life is 17.6 h. The C0 in series [1] (setting [8]) stood at 838 ng/mL. In series [1] (setting [9]), the AUC(0-inf) was found to be 1580 ng·h/mL and the half-life was 14 h. The Cmax in series [1] (setting [10]) came out at 135 ng/mL. Besides, the time to peak (Tmax) in series [1] (setting [11]) was 2 h. In the series on GP2D (Homo sapiens, GP2d, 72 h), the concentration for half-maximal inhibition (IC50) was 0.32 nM. For the same molecule, in series [4], the “Remaining rate (%) 0 min” value is reported as 100.00%, the “Remaining rate (%) 15 min” value worked out at 97.07%, the “Remaining rate (%) 30 min” value turned out to be 93.36% and the “Remaining rate (%) 60 min” value is given as 97.21%. In series [4], the “Remaining rate (%) 120 min” value worked out at 95.03% and the half-life is 91.6 h.

With `[2H]C([2H])(Oc1nc2c3c(nc(-c4cc(O)cc5ccc(F)c(C#C)c45)c(F)c3n1)O[C@@H](C)[C@@H]1[C@@H]3CC[C@H](CN21)N3)C1(C([2H])([2H])N2CCC(=CF)CC2)CC1` [Example 291, 5-ethynyl-6-fluoro-4-((5S,5aS,6S,9R)-1-fluoro-12-((1-((4-(fluoromethylene)piperidin-1-yl)methyl-d2)cyclopropyl)methoxy-d2)-5-methyl-5a,6,7,8,9,10-hexahydro-5H-4-oxa-3,10a,11,13,14-pentaaza-6,9-methylnaphtho[1,8-ab]hept-2-yl)naphthalen-2-ol], in series [3], the “Remaining rate (%) 0 min” value is recorded as 100.00%, the “Remaining rate (%) 15 min” value came out at 102.43%, the “Remaining rate (%) 30 min” value was 95.46% and the “Remaining rate (%) 60 min” value worked out at 105.44%. In addition, in series [3], the “Remaining rate (%) 120 min” value came out at 96.68% and the half-life is 115 h. Moreover, the IC50 in the series with GP2D (Homo sapiens, GP2d, 72 h) worked out at 0.15 nM. In series [4], the “Remaining rate (%) 0 min” value turned out to be 100.00%, the “Remaining rate (%) 15 min” value is reported as 99.67%, the “Remaining rate (%) 30 min” value is reported as 102.83% and the “Remaining rate (%) 60 min” value is given as 103.48%. Moreover, in series [4], the “Remaining rate (%) 120 min” value is given as 98.20% and the half-life was 38.3 h.

Consider `CON=C1CCN(CC2(COc3nc4c5c(nc(-c6cc(N)cc(Cl)c6C(F)(F)F)c(F)c5n3)O[C@@H](C)[C@@H]3[C@@H]5CC[C@H](CN43)N5)CC2)CC1` [Example 337, 1-((1-((((5S,5aS,6S,9R)-2-(5-amino-3-chloro-2-(trifluoromethyl)phenyl)-1-fluoro-5-methyl-5a,6,7,8,9,10-hexahydro-5H-4-oxa-3,10a,11,13,14-pentaaza-6,9-methylnaphtho[1,8-ab]heptene-12-yl)oxy)methyl)cyclopropyl)methyl)piperidin-4-one O-methyloxime], for which the AUC(0-inf) in series [1] (setting [9]) stood at 374 ng·h/mL; in series [2] (setting [14]) it was 632 ng·h/mL. Also, the Cmax amounted to 41 ng/mL in series [1] (setting [10]) and 204 ng/mL in series [2] (setting [15]). For the same molecule, the half-life in series [1] (setting [9]) was 4.2 h; in series [2] (setting [15]), 1.7 h. Also, the Tmax in series [1] (setting [11]) was 4 h; in series [2] (setting [15]), 1 h. Besides, in the series with GP2D (Homo sapiens, GP2d, 72 h), the IC50 stood at 0.11 nM.

In the case of `[2H]C([2H])([2H])[C@@H]1Oc2nc(-c3cc(N)cc(Cl)c3C(F)(F)F)c(F)c3nc(OCC4(CN5CCC(=NOC)CC5)CC4)nc(c23)N2C[C@H]3CC[C@H](N3)[C@@H]12` [Example 339], the F is reported as 6.6% in series [1] and 13.8% in series [2] (PO 30 mg/kg vs IV 1 mg/kg, male Balb/c mice). Further, the AUC(0-inf) was determined as 98 ng·h/mL in series [1] (setting [7]), 220 ng·h/mL in series [1] (setting [9]), 133 ng·h/mL in series [2] (setting [12]) and 476 ng·h/mL in series [2] (setting [14]). For the same molecule, the figures for the C0 in series [1] (setting [8]) and in series [2] (setting [13]) were 174 ng/mL and 188 ng/mL, respectively. For the same molecule, the clearance in series [1] (setting [7]) turned out to be 170 mL/min/kg; in series [2] (setting [13]) it was 125 mL/min/kg. Besides, the half-life in series [1] (setting [7]) was 2.6 h; in series [1] (setting [9]), 3 h; in series [2] (setting [13]), 4.8 h; in series [2] (setting [15]), 1.8 h. The Cmax came to 43 ng/mL in series [1] (setting [10]) and 143 ng/mL in series [2] (setting [15]). The time to peak (Tmax) in series [1] (setting [11]) turned out to be 2 h; in series [2] (setting [15]), 1 h. Besides, the 50% inhibitory concentration (IC50) with GP2D (Homo sapiens, GP2d, 72 h) came out at 0.1 nM.
